# Assay results: EP2711367A1, “New spiroepoxide tetrahydrobenzo-triazoles and -imidazoles and their use as MetAP-II inhibitors” (Deutsches Krebsforschungszentrum, priority 2012, dated 2014)
# Read-outs that look alike come from different tables or passages of the source.
# Columns and labels:
# E. coli MetAP = E. coli MetAP (Escherichia coli, UniProt P0AE18); assay: MetAP inhibitory activity, Met-Gly-Met-Met substrate, HPLC detection of Gly-Met-Met; assay type: biochemical; conditions: for inhibition at 25 µM: read-out: E. Coli % inhibition; for E. Coli % inhibition: single concentration: inhibitor 25 µM, enzyme 50 nM, 20 minutes substrate incubation at 37 °C
# Chain of E. coli MetAP (P0AE18 whole entry): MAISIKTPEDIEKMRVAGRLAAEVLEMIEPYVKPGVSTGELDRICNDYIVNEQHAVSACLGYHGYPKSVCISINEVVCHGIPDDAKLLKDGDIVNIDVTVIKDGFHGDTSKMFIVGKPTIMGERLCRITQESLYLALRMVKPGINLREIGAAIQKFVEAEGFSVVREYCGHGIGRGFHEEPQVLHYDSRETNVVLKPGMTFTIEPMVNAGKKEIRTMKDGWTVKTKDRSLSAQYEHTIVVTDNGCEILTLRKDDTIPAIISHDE
# Description: (§1) The below protocol describes the measurement of the inhibitory activity of the compounds of the present invention by using E. coli MetAP, hsMetAP-I, and hsMetAP-II.
# (§2) Inhibition activity of compounds was studied using the tetrapeptide substrate Met-Gly-Met-Met (Bachem) followed by HPLC analysis of the product Gly-Met-Met. The assay was performed in 96 well plates (Greiner) at a total reaction volume of 100 µl. […] A positive control with DMSO solution instead of inhibitor at the corresponding concentration was prepared. Then the substrate Met-Gly-Met-Met was added to a final concentration of 400 µM. After an incubation period of 15 minutes (HsMetAP-I), 20 minutes (EcMetAP) or 60 minutes (HsMetAP-II) at 37 °C, the enzyme reaction was stopped by adding 10 µl 4 % trifluoroacetic acid. The plate was centrifuged at 1000 x g for 10 minutes.
# (§3) Detection of the product Gly-Met-Met was performed by HPLC (Jasco), and typically using the following, or equivalent conditions: C18 column (Dr. Maisch, ReproSil-Pur® 120 ODS-3, 3 µm, 50 x 2 mm). 80 µl of sample were applied on the column and eluted with mobile phase A (water and 0.1 % trifluoroacetic acid, filtered, degassed) and B (acetonitrile and 0.1 % trifluoroacetic acid, degassed) over 8 minutes.
# (§4) Percentage inhibition was calculated as the relation of Gly-Met-Met amount resulting in inhibited and uninhibited enzyme reaction (positive control). […] The values were determined in relation to positive controls with equal DMSO contents. The inhibition values for the varying concentrations of inhibitor were then fitted to a logarithmic dose-response curve and the IC50 values were calculated from the equation thus obtained.
# hsMetAP-II = hsMetAP-II (Homo sapiens, UniProt P50579); assay: as above; assay type: biochemical, hs
# Chain of hsMetAP-II (P50579 whole entry): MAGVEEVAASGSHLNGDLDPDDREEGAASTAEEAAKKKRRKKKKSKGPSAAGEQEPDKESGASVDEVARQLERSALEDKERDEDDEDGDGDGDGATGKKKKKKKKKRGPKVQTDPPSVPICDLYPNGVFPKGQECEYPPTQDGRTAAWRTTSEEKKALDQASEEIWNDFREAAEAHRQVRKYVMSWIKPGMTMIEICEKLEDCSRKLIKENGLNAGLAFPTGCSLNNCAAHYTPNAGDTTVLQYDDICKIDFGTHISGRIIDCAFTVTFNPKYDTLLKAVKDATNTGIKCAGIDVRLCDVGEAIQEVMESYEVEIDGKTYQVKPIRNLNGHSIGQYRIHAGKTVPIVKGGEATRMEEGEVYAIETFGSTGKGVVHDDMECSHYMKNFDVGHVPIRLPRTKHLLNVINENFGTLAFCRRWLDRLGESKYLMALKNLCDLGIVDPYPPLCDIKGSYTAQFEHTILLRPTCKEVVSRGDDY
# Description: as §1
# Inhibition activity of compounds was studied using the tetrapeptide substrate Met-Gly-Met-Met (Bachem) followed by HPLC analysis of the product Gly-Met-Met. The assay was performed in 96 well plates (Greiner) at a total reaction volume of 100 µl. […] Then the substrate Met-Gly-Met-Met was added to a final concentration of 400 µM. After an incubation period of 15 minutes (HsMetAP-I), 20 minutes (EcMetAP) or 60 minutes (HsMetAP-II) at 37 °C, the enzyme reaction was stopped by adding 10 µl 4 % trifluoroacetic acid. The plate was centrifuged at 1000 x g for 10 minutes.
# as §3, §4
# hsMetAP-I = hsMetAP-I (Homo sapiens, UniProt P53582); assay: as above; assay type: biochemical, hs; conditions: for inhibition at 25 µM: read-out: hsMetAP-I % inhibition
# Description: as §1, §2, §3, §4
# [1] = tested on: human umbilical vein endothelial cells (HUVEC); assay: HUVEC growth arrest, crystal violet staining; assay type: cell-based; conditions: Homo sapiens, HUVEC, 240 h
# Description: For the measurement of the HUVEC growth arrest (Example 19) and the used materials and equipment were:
# • Cells: Primary human umbilical vein cells (HUVEC) were obtained from GIBCO (Cat. C-015-5C). • Cell culture medium: Medium 200 supplemented with LSGS (Gibco, Cat. M-200-500). • Trypsin/EDTA (Gibco, Cat R-001-100) • Trypsin Neutralizer solution (Gibco, Cat R-002-100). • Crystal violet (Merck / Cat. no. 1408) • Ethanol (Riedel-de-Haen / Cat. no. 32205) • Acetic acid (Riedel-de-Haen / Cat. no. 33209) • Culture flasks: Coming, 430168 • 96 well plates: Greiner, 655 101
# • Microtiter pipettes: •Brand Transferpette-8, • Gilson Pipetman 20 and 200 Laminar air flow cabinet: Gelman, Celaire • ELISA reader: Thermo, Multiskan Ascent • Microscope: Leitz Diavert • Balance: Sartorius RC 210 D • CO2 incubator: Heraeus CO2-Auto-Zero • Centrifuge: Heraeus Biofuge primo • Cell counter: Assistent, Neubauer hematocytometer
# Crystal violet solution: • Crystal violet (Merck) was dissolved in ethanol (PA quality, Roth) to a concentration of 10 %. The solution was diluted with ddH2O 1:20.
# Test compounds: • Compounds of the present invention were dissolved at a concentration of 10 mM in DMSO (Roth, Cat. 47201). Stock solutions of test compounds were diluted 1:10 not earlier than 1 hour before the assay was made.
# • 1. HUVEC cells were seeded in 96-well plates ([…]). • 2. 6 hours later test compounds were added in triplicates Concentrations of test compound: 0, 1.6, 3.2, 6.3, 12.5, 25, 50, 100 µM. Fresh medium and test compounds were added every 48 hr. • 3. One 96 well plate (t=0) with untreated cells was fixed at the same time point as treatment of cells with test compounds was initiated. • 4. Test plates were incubated for 10 days in a CO2 incubator. • 5. Fixation of cells: Wells were washed with 100 µL/well PBS. PBS was decanted and 100 µL of 3 % formaldehyde/well was added. After 5 min, formaldehyde was decanted and plates were dried upside down on blotting paper overnight at room temperature. • 6. Staining: 0.1 mL of crystal violet solution was added to each well with a 12-channel pipette. After incubation for 5 min at room temperature, the crystal violet solution was decanted and plates were washed 5 x by submersion in 3 L fresh water. • 7. After drying (plates were dried on blotting paper upside down overnight) 0.1 mL of ethanol/acetic acid (99:1) was added to each well and the optical density at 595 nm was determined in an ELISA reader.
# The evaluation of the growth inhibitory activity was carried out as follows: • Definitions: Growth: Mean OD at t=10 d - mean OD at t=0. • Evaluation: Dose response curves were established by plotting growth against concentration of compounds using Microsoft Excel.
# [2] = single concentration: inhibitor 25 µM, enzyme 50 nM, 60 minutes substrate incubation at 37 °C
# [3] = single concentration: inhibitor 25 µM, enzyme 50 nM, 15 minutes substrate incubation at 37 °C
# [4] = read-out: hsMetAP-II % inhibition, single concentration: inhibitor 25 µM, enzyme 50 nM, 60 minutes substrate incubation at 37 °C
# [5] = hsMetAP-II IC50, enzyme 50 nM, 400 µM Met-Gly-Met-Met, 60 minutes at 37 °C
# [6] = growth over 10 days, 0-100 µM, OD at 595 nm, read-out: HUVEC IC50
# [7] = enzyme 50 nM, 400 µM Met-Gly-Met-Met, 60 minutes at 37 °C, read-out: hsMetAP-II IC50
# [8] = single concentration: inhibitor 25 µM, enzyme 50 nM, 60 minutes substrate incubation at 37 °C, read-out: hsMetAP-II % inhibition
Structure (SMILES),inhibition at 25 µM (E. coli MetAP),E. Coli % inhibition (E. coli MetAP),hsMetAP-I % inhibition (hsMetAP-I; [3]),inhibition at 25 µM (hsMetAP-II; [4]),inhibition at 25 µM (hsMetAP-II; [8]),also measured
Cn1nnc2c1C1(CCC2=O)CO1 (racemic) [CJ-II-011],20 ± 2%,–,–,–,–,hsMetAP-II % inhibition (hsMetAP-II; [2]): Inactive; inhibition at 25 µM (hsMetAP-I; [3]): 14 ± 7%
CCCn1cnc2c1C1(CCC2=O)CO1 (racemic) [JL-II-116-A],–,Inactive,Inactive,–,–,hsMetAP-II % inhibition (hsMetAP-II; [2]): Inactive
Cn1cnc2c1C1(CCC2=O)CO1 (racemic) [JL-II-136-A],–,Inactive,Inactive,–,–,hsMetAP-II % inhibition (hsMetAP-II; [2]): Inactive
O=C(O[C@@H]1CC[C@]2(CO2)c2c1nnn2Cc1ccc2ccccc2c1)c1ccccc1 (racemic) [JL-III-132-C],22 ± 7%,–,Inactive,63 ± 5%,–,IC50 (hsMetAP-II): 3700 ± 300 nM
O=C(O[C@@H]1CC[C@]2(CO2)c2c1nnn2Cc1ccccc1)c1ccccc1 (racemic) [JL-III-147-A],45 ± 7%,–,–,93.3 ± 2.1%,–,IC50 (hsMetAP-II): 1300 ± 10 nM; inhibition at 25 µM (hsMetAP-I): 15 ± 1%
O=C(O[C@@H]1CC[C@@]2(CO2)c2c1nnn2Cc1ccccc1)c1ccccc1 (racemic) [JL-III-147-B],36 ± 11%,–,Inactive,59 ± 2%,–,IC50 (hsMetAP-II): 19100 ± 9000 nM
COc1ccc(Cn2nnc3c2[C@]2(CC[C@H]3OC(=O)c3ccccc3)CO2)cc1 (racemic) [UWU-II-023-A],–,Inactive,Inactive,98.6 ± 0.4%,–,"IC50 ([1]; read-out: HUVEC IC50, growth over 10 days, 0-100 µM, OD at 595 nm): 2400 nM; inhibitory effect on MetAP-II (in words) (hsMetAP-II): good inhibitory effect; IC50 (hsMetAP-II; [5]): 600 ± 10 nM"
COc1ccc(Cn2nnc3c2[C@@]2(CC[C@H]3OC(=O)/C=C/c3cc(OC)c(OC)c(OC)c3)CO2)cc1 (racemic) [UWU-II-035-C],–,Inactive,Inactive,85 ± 11%,–,IC50 (hsMetAP-II): 2020 ± 30 nM
COc1ccc(Cn2nnc3c2[C@@]2(CC[C@H]3OC(=O)c3ccccc3)CO2)cc1 (racemic) [UWU-XII-023-D],–,Inactive,Inactive,45 ± 4%,–,"IC50 [1, 6]: 2100 nM; IC50 (hsMetAP-II; [5]): 17000 ± 12000 nM"
COc1ccc(Cn2nnc3c2C2(CCC3OC(=O)C=Cc3cc(OC)c(OC)c(OC)c3)CO2)cc1 (racemic) [UWU-XII-035-A],–,Inactive,Inactive,94 ± 4%,–,"inhibitory effect on MetAP-II (in words) (hsMetAP-II): good inhibitory effect; IC50 (hsMetAP-II; read-out: hsMetAP-II IC50, enzyme 50 nM, 400 µM Met-Gly-Met-Met, 60 minutes at 37 °C): 500 ± 1000 nM"
CC(C)c1ccc(Cn2nnc3c2[C@]2(CC[C@H]3OC(=O)c3ccccc3)CO2)cc1 (racemic) [UWU-XII-036-A],20 ± 8%,–,Inactive,59 ± 5%,–,IC50 (hsMetAP-II): 4700 ± 300 nM
COc1ccc(Cn2nnc3c2[C@]2(CC[C@H]3OC(=O)NC(C)C)CO2)cc1 (racemic) [UWU-XII-131-A],–,Inactive,Inactive,–,–,"IC50 [1, 6]: 400 nM"
COc1ccc(Cn2nnc3c2[C@@]2(CC[C@H]3OC(=O)NC(C)C)CO2)cc1 (racemic) [UWU-XII-131-C],–,Inactive,Inactive,–,–,"IC50 [1, 6]: 2500 nM"
COc1ccc(Cn2nnc3c2[C@@]2(CC[C@@H]3OC(=O)NC(C)C)CO2)cc1 [(-)-UWU-XII-131-A],–,Inactive,Inactive,–,–,"IC50 [1, 6]: 8200 nM"
Cc1ccccc1Cn1nnc2c1C1(CCC2=O)CO1 (stereo not shown) [BK-I-181-B],–,Inactive,Inactive,–,100%,IC50 (hsMetAP-II; [7]): 5100 ± 2900 nM
CCn1nnc2c1C1(CCC2=O)CO1 (stereo not shown) [CJ-II-007],22 ± 5%,–,Inactive,–,–,hsMetAP-II % inhibition (hsMetAP-II; [2]): Inactive
CCCCCCCCn1nnc2c1C1(CCC2=O)CO1 (stereo not shown) [CJ-II-010],14 ± 7%,–,–,–,50 ± 2%,inhibition at 25 µM (hsMetAP-I; [3]): 12.1 ± 1.5%
O=C1CCC2(CO2)c2c1nnn2Cc1ccc2ccccc2c1 (stereo not shown) [HHS-I-020-C],24 ± 8%,–,Inactive,–,84.1 ± 3.2%,IC50 (hsMetAP-II; [7]): 2700 ± 100 nM
O=C1CCC2(CO2)c2c1nnn2Cc1ccccc1 (stereo not shown) [HHS-I-027-B],–,Inactive,Inactive,–,64.5 ± 0.1%,IC50 (hsMetAP-II; [7]): 13700 ± 3400 nM
CC(C)CCn1cnc2c1C1(CCC2=O)CO1 (stereo not shown) [JL-II-115-A],25 ± 8%,–,Inactive,–,–,hsMetAP-II % inhibition (hsMetAP-II; [2]): Inactive
CC(C)Cn1cnc2c1C1(CCC2=O)CO1 (stereo not shown) [JL-II-120-B],–,Inactive,Inactive,–,12 ± 6%,–
CCn1cnc2c1C1(CCC2=O)CO1 (stereo not shown) [JL-II-137-A],–,Inactive,Inactive,–,–,hsMetAP-II % inhibition (hsMetAP-II; [2]): Inactive
O=C1CCC2(CO2)c2c1ncn2Cc1ccccc1 (stereo not shown) [JL-III-084-C],–,Inactive,Inactive,–,24 ± 1%,–
O=C(O[C@@H]1CC[C@@]2(CO2)c2c1nnn2Cc1ccc2ccccc2c1)c1ccccc1 [JL-III-132-D],–,Inactive,Inactive,–,15 ± 5%,–
CC(C)c1ccc(Cn2nnc3c2C2(CCC3=O)CO2)cc1 (stereo not shown) [JL-III-138-A],50 ± 6%,–,–,–,84 ± 3%,IC50 (hsMetAP-II; [7]): 5500 ± 3000 nM; inhibition at 25 µM (hsMetAP-I; [3]): 16 ± 2%
